Results published in patent US4634700A, “1,3-dioxolanyl derivatives, a process for their preparation, their use and pharmaceutical preparations containing these compounds” (Ludwig Heumann & Co., GmbH, priority 1984, dated 1987).
Values after ≈ are worked out from the molar mass of the structure shown.

Key:
Assay in all cases: Growth inhibition of yeast, IC 50% determination
Assay type in all cases: cell-based
[1] = tested on: Cryptococcus neoformans 1; details: Cryptococcus neoformans 1 (pathogen +)
Excerpt: (§1) One method of determining the microbiological activity of the compounds according to the invention on yeasts is the determination of the inhibitory concentration 50% (IC 50%).

Cand. pseudotropicalis = details: Kluyveromyces marxianus; Cand. pseudotropicalis (pathogen +)
Excerpt: as §1

Sacch. cerevisiae 1 = details: Saccharomyces cerevisiae; Sacch. cerevisiae 1 (pathogen (+))
Excerpt: as §1

Hansenula anomala = Hansenula anomala (pathogen -)
Excerpt: as §1

Sacch. cerevisiae 2 = details: Saccharomyces cerevisiae; Sacch. cerevisiae 2 (pathogen (+))
Excerpt: as §1

Geotrichum capitum = Geotrichum capitum (pathogen +)
Excerpt: as §1

Cand. curvata = Cand. curvata (pathogen +)
Excerpt: as §1

Cand. parapsilosis = details: Lodderomyces parapsilosis; Cand. parapsilosis (pathogen +)
Excerpt: as §1

Sacch. rouxii = Sacch. rouxii (pathogen (+))
Excerpt: as §1

Cand. krusei = details: Pichia kudriavzevii; Cand. krusei (pathogen +)
Excerpt: as §1

Sacch. uvarum = Sacch. uvarum (pathogen (+))
Excerpt: as §1

Cand. albicans = details: Candida albicans; Cand. albicans (pathogen +)
Excerpt: as §1

[2] = tested on: Cryptococcus neoformans 2; details: Cryptococcus neoformans 2 (pathogen +)
Excerpt: as §1

Rhodotorula spec. = Rhodotorula spec. (pathogen -)
Excerpt: as §1

Sacch. fragilis = Sacch. fragilis (pathogen (+))
Excerpt: as §1

Metschnikowia pulch = Metschnikowia pulch (pathogen -)
Excerpt: as §1

## CSC(=NC#N)N1CCN(c2ccc(OC[C@H]3CO[C@](Cn4ccnc4)(c4ccc(Cl)cc4Cl)O3)cc2)CC1 (relative stereo) [Example 2, cis-1-Cyanimino-methylthio-methylene-4-[4[[2-(2,4-dichlorophenyl)-2-(1H-imidazol-1-ylmethyl)-1,3-dioxolan-4-yl]-methoxy]-phenyl]-piperazine]
[1]
  IC50: 0.0125 µg/mL (≈ 0.0213 µM)
Cand. pseudotropicalis
  IC50: 0.00125 µg/mL (≈ 0.00213 µM)
Sacch. cerevisiae 1
  IC50: 1.25 µg/mL (≈ 2.13 µM)
Hansenula anomala
  IC50: 0.00125 µg/mL (≈ 0.00213 µM)
Sacch. cerevisiae 2
  IC50: 1.25 µg/mL (≈ 2.13 µM)
Geotrichum capitum
  IC50: 0.125 µg/mL (≈ 0.213 µM)
Cand. curvata
  IC50: 0.125 µg/mL (≈ 0.213 µM)
Cand. parapsilosis
  IC50: 0.0125 µg/mL (≈ 0.0213 µM)
Sacch. rouxii
  IC50: 0.00125 µg/mL (≈ 0.00213 µM)
Cand. krusei
  IC50: 0.125 µg/mL (≈ 0.213 µM)
Sacch. uvarum
  IC50: 1.25 µg/mL (≈ 2.13 µM)
Cand. albicans
  IC50: 0.00125 µg/mL (≈ 0.00213 µM)
[2]
  IC50: 0.125 µg/mL (≈ 0.213 µM)
Rhodotorula spec.
  IC50: 1.25 µg/mL (≈ 2.13 µM)
Sacch. fragilis
  IC50: 0.0125 µg/mL (≈ 0.0213 µM)
Metschnikowia pulch
  IC50: 0.00125 µg/mL (≈ 0.00213 µM)
